# Values joined by “and” are separate entries in the source; they are usually repeats but may differ in a detail not shown here. Equal entries are not always repeated. Results filed as inconclusive are left out.
# Test system: BDF1 mice, B16 melanoma s.c., survival/tumor T/C
# Assay: NCI In Vivo Anticancer Drug Screen. Data for tumor model B16 Melanoma (subcutaneous) in B6D2F1 (BDF1) mice
# Protocol: The antitumor activity of compounds was measured in mice bearing transplantable tumors. Survival or tumor size were measured and the results are expressed as the measurement made in the treated group (T) divided by the measurement made in the vehicle treated control group (C). The tumor model used in this assay is B16 Melanoma (subcutaneous) in B6D2F1 (BDF1) mice
# [1] = endpoint: median survival time, dose: 2.0 mg/kg/injection, schedule: Q01DX009 (ip), vehicle: Klucel (hydroxypropylcellulose) (HPC), higher = longer survival
# [2] = endpoint: median survival time, dose: 4.0 mg/kg/injection, schedule: Q01DX009 (ip), vehicle: saline, higher = longer survival
# [3] = endpoint: median survival time, dose: 8.0 mg/kg/injection, schedule: Q01DX009 (ip), vehicle: saline, higher = longer survival
# [4] = endpoint: median survival time, dose: 16.0 mg/kg/injection, schedule: Q01DX009 (ip), vehicle: saline, higher = longer survival
# [5] = endpoint: median survival time, dose: 100.0 mg/kg/injection, schedule: Q01DX009 (ip), vehicle: saline, higher = longer survival
# [6] = endpoint: median survival time, dose: 200.0 mg/kg/injection, schedule: Q01DX009 (ip), vehicle: saline, higher = longer survival
# [7] = endpoint: median survival time, dose: 400.0 mg/kg/injection, schedule: Q01DX009 (ip), vehicle: saline, higher = longer survival
structure (smiles),measurement,setting,value
CO[C@@]12[C@H](COC(N)=O)C3=C(C(=O)C(C)=C(N)C3=O)N1C[C@@H]1N[C@@H]12,T/C,"endpoint: median survival time, dose: 0.25 mg/kg/injection, schedule: Q01DX009 (ip), vehicle: Klucel (hydroxypropylcellulose) (HPC), higher = longer survival",95 % of control
same,T/C,"endpoint: median survival time, dose: 0.5 mg/kg/injection, schedule: Q01DX009 (ip), vehicle: Klucel (hydroxypropylcellulose) (HPC), higher = longer survival",110 % of control
same,T/C,[1],154 % of control
same,T/C,"endpoint: median tumor weight (est.), dose: 0.25 mg/kg/injection, schedule: Q01DX009 (ip), vehicle: saline, higher = larger tumour",77 % of control
same,T/C,"endpoint: median tumor weight (est.), dose: 0.5 mg/kg/injection, schedule: Q01DX009 (ip), vehicle: saline, higher = larger tumour",101 % of control
same,T/C,"endpoint: median tumor weight (est.), dose: 1.0 mg/kg/injection, schedule: Q01DX009 (ip), vehicle: saline, higher = larger tumour",70 % of control
same,T/C,"endpoint: median tumor weight (est.), dose: 2.0 mg/kg/injection, schedule: Q01DX009 (ip), vehicle: saline, higher = larger tumour",30 % of control
CCC(c1ccc(OC(=O)Cc2ccc(N(CCCl)CCCl)cc2)cc1)C(CC)c1ccc(OC(=O)Cc2ccc(N(CCCl)CCCl)cc2)cc1 (configuration not stated),T/C,"endpoint: median survival time, dose: 80.0 mg/kg/injection, schedule: Q01DX009 (ip), vehicle: saline with Tween-80, higher = longer survival",102 % of control
same,T/C,"endpoint: median survival time, dose: 120.0 mg/kg/injection, schedule: Q01DX009 (ip), vehicle: saline with Tween-80, higher = longer survival",106 % of control
same,T/C,"endpoint: median survival time, dose: 180.0 mg/kg/injection, schedule: Q01DX009 (ip), vehicle: saline with Tween-80, higher = longer survival",93 % of control
same,T/C,"endpoint: median survival time, dose: 270.0 mg/kg/injection, schedule: Q01DX009 (ip), vehicle: saline with Tween-80, higher = longer survival",102 % of control
same,T/C,"endpoint: median survival time, dose: 405.0 mg/kg/injection, schedule: Q01DX009 (ip), vehicle: saline with Tween-80, higher = longer survival",90 % of control
CSCS(=O)C[C@H](CO)NC(=O)/C=C/c1c(C)[nH]c(=O)[nH]c1=O (some centres not stated),T/C,"endpoint: median survival time, dose: 0.08 mg/kg/injection, schedule: Q01DX009 (ip), vehicle: water, higher = longer survival",90 % of control
same,T/C,"endpoint: median survival time, dose: 0.15 mg/kg/injection, schedule: Q01DX009 (ip), vehicle: water, higher = longer survival",112 % of control
same,T/C,"endpoint: median survival time, dose: 0.3 mg/kg/injection, schedule: Q01DX009 (ip), vehicle: water, higher = longer survival",96 % of control
same,T/C,"endpoint: median survival time, dose: 0.6 mg/kg/injection, schedule: Q01DX009 (ip), vehicle: water, higher = longer survival",100 % of control
FC(F)(F)c1nc2nc(Cl)c(Cl)nc2[nH]1,T/C,[2],109 % of control
same,T/C,[3],105 % of control
same,T/C,[4],118 % of control
CC1(C)N=C(N)N=C(N)N1c1ccc(CCCCc2ccc(Cl)c(S(=O)(=O)F)c2)c(Cl)c1,T/C,[3],119 % of control
same,T/C,"endpoint: median survival time, dose: 12.0 mg/kg/injection, schedule: Q01DX009 (ip), vehicle: saline, higher = longer survival",110 % of control
same,T/C,"endpoint: median survival time, dose: 18.0 mg/kg/injection, schedule: Q01DX009 (ip), vehicle: saline, higher = longer survival",107 % of control
same,T/C,"endpoint: median survival time, dose: 27.0 mg/kg/injection, schedule: Q01DX009 (ip), vehicle: saline, higher = longer survival",94 % of control
CC1=C(/C=C/C(C)=C/C=C/C(C)=C/C(=O)O)C(C)(C)CCC1,T/C,"endpoint: median survival time, dose: 4.0 mg/kg/injection, schedule: Q01DX009 (ip), vehicle: saline with Tween-80, higher = longer survival",88 % of control
O=C1OC(C(O)CO)C(O)=C1O (configuration not stated),T/C,"endpoint: median survival time, dose: 50.0 mg/kg/injection, schedule: Q01DX009 (ip), vehicle: saline, higher = longer survival",106 % of control
same,T/C,[5],103 % of control
same,T/C,[6],103 % of control
same,T/C,[7],109 % of control
same,T/C,"endpoint: median survival time, dose: 800.0 mg/kg/injection, schedule: Q01DX009 (ip), vehicle: saline, higher = longer survival",109 % of control
O=P1(N(CCCl)CCCl)NCCCO1 (configuration not stated),T/C,"endpoint: median survival time, dose: 15.0 mg/kg/injection, schedule: Q04DX003 (ip), vehicle: saline, higher = longer survival",111 % of control
same,T/C,"endpoint: median survival time, dose: 30.0 mg/kg/injection, schedule: Q04DX003 (ip), vehicle: saline, higher = longer survival",123 % of control
same,T/C,"endpoint: median survival time, dose: 60.0 mg/kg/injection, schedule: Q04DX003 (ip), vehicle: saline, higher = longer survival",171 % of control
same,T/C,"endpoint: median survival time, dose: 120.0 mg/kg/injection, schedule: Q04DX003 (ip), vehicle: saline, higher = longer survival",193 % of control
same,T/C,"endpoint: median survival time, dose: 200.0 mg/kg/injection, schedule: Q01DX001 (ip), vehicle: saline, higher = longer survival",158 % of control
same,T/C,"endpoint: median tumor weight (est.), dose: 50.0 mg/kg/injection, schedule: Q01DX009 (ip), vehicle: saline, higher = larger tumour",19 % of control and 40 % of control
same,T/C,"endpoint: median tumor weight (est.), dose: 100.0 mg/kg/injection, schedule: Q01DX009 (ip), vehicle: saline, higher = larger tumour",19 % of control
O=[N+]([O-])O.[Ga],T/C,[2],109 % of control
same,T/C,[4],91 % of control
same,T/C,"endpoint: median survival time, dose: 32.0 mg/kg/injection, schedule: Q01DX009 (ip), vehicle: saline, higher = longer survival",86 % of control
same,T/C,"endpoint: median survival time, dose: 40.0 mg/kg/injection, schedule: Q01DX009 (ip), vehicle: saline, higher = longer survival",99 % of control
same,T/C,"endpoint: median survival time, dose: 64.0 mg/kg/injection, schedule: Q01DX009 (ip), vehicle: saline, higher = longer survival",95 % of control
same,T/C,"endpoint: median survival time, dose: 90.0 mg/kg/injection, schedule: Q01DX009 (ip), vehicle: saline, higher = longer survival",104 % of control
same,T/C,"endpoint: median survival time, dose: 200.0 mg/kg/injection, schedule: Q04DX003 (ip), vehicle: saline, higher = longer survival",99 % of control
same,T/C,"endpoint: median survival time, dose: 400.0 mg/kg/injection, schedule: Q01DX001 (ip), vehicle: saline, higher = longer survival",100 % of control
same,T/C,"endpoint: median survival time, dose: 600.0 mg/kg/injection, schedule: Q01DX001 (ip), vehicle: saline, higher = longer survival",100 % of control
Cn1ncc2c(N)ncnc21,T/C,[1],104 % of control
same,T/C,"endpoint: median survival time, dose: 4.0 mg/kg/injection, schedule: Q01DX009 (ip), vehicle: Klucel (hydroxypropylcellulose) (HPC), higher = longer survival",106 % of control
same,T/C,"endpoint: median survival time, dose: 8.0 mg/kg/injection, schedule: Q01DX009 (ip), vehicle: Klucel (hydroxypropylcellulose) (HPC), higher = longer survival",115 % of control
CS(=O)(=O)OCCCCOS(C)(=O)=O,T/C,"endpoint: median survival time, dose: 12.5 mg/kg/injection, schedule: Q01DX009 (ip), vehicle: Klucel (hydroxypropylcellulose) (HPC), higher = longer survival",88 % of control and 100 % of control
same,T/C,"endpoint: median survival time, dose: 25.0 mg/kg/injection, schedule: Q01DX009 (ip), vehicle: saline with Tween-80, higher = longer survival",100 % of control
same,T/C,"endpoint: median survival time, dose: 50.0 mg/kg/injection, schedule: Q01DX009 (ip), vehicle: saline with Tween-80, higher = longer survival",100 % of control
same,T/C,"endpoint: median tumor weight (est.), dose: 12.5 mg/kg/injection, schedule: Q01DX009 (ip), vehicle: saline with Tween-80, higher = larger tumour",162 % of control
same,T/C,"endpoint: median tumor weight (est.), dose: 25.0 mg/kg/injection, schedule: Q01DX009 (ip), vehicle: Klucel (hydroxypropylcellulose) (HPC), higher = larger tumour",97 % of control and 83 % of control
same,T/C,"endpoint: median tumor weight (est.), dose: 25.0 mg/kg/injection, schedule: Q01DX009 (ip), vehicle: saline with Tween-80, higher = larger tumour",88 % of control
same,T/C,"endpoint: median tumor weight (est.), dose: 50.0 mg/kg/injection, schedule: Q01DX009 (ip), vehicle: Klucel (hydroxypropylcellulose) (HPC), higher = larger tumour",61 % of control
same,T/C,"endpoint: median tumor weight (est.), dose: 50.0 mg/kg/injection, schedule: Q01DX009 (ip), vehicle: saline with Tween-80, higher = larger tumour",69 % of control
NCCc1ccc(O)c(O)c1,T/C,[5],107 % of control
same,T/C,[6],106 % of control
same,T/C,[7],97 % of control
same,T/C,"endpoint: median survival time, dose: 600.0 mg/kg/injection, schedule: Q01DX009 (ip), vehicle: saline, higher = longer survival",110 % of control
CCOC(=O)C(CC(C)C)NC(=O)C(Cc1ccc(N(CCCl)CCCl)cc1)NC(C)=O (configuration not stated),T/C,"endpoint: median survival time, dose: 1.0 mg/kg/injection, schedule: Q01DX009 (ip), vehicle: other, higher = longer survival",91 % of control
same,T/C,"endpoint: median survival time, dose: 2.0 mg/kg/injection, schedule: Q01DX009 (ip), vehicle: other, higher = longer survival",103 % of control
same,T/C,"endpoint: median survival time, dose: 4.0 mg/kg/injection, schedule: Q01DX009 (ip), vehicle: other, higher = longer survival",97 % of control
same,T/C,"endpoint: median survival time, dose: 16.0 mg/kg/injection, schedule: Q01DX009 (ip), vehicle: other, higher = longer survival",89 % of control
O=C(O)CCCCC1CCSS1 (configuration not stated),T/C,"endpoint: median survival time, dose: 7.81 mg/kg/injection, schedule: Q01DX009 (ip), vehicle: Klucel (hydroxypropylcellulose) (HPC), higher = longer survival",116 % of control and 117 % of control
same,T/C,"endpoint: median survival time, dose: 15.62 mg/kg/injection, schedule: Q01DX009 (ip), vehicle: Klucel (hydroxypropylcellulose) (HPC), higher = longer survival",112 % of control and 116 % of control
same,T/C,"endpoint: median survival time, dose: 125.0 mg/kg/injection, schedule: Q01DX009 (ip), vehicle: Klucel (hydroxypropylcellulose) (HPC), higher = longer survival",99 % of control and 100 % of control
COc1cccc2c1C(=O)c1c(O)c3c(c(O)c1C2=O)CC(O)(C(C)=O)CC3OC1CC(N)C(O)C(C)O1 (configuration not stated),T/C,"endpoint: median survival time, dose: 5.8 mg/kg/injection, schedule: Q01DX009 (ip), vehicle: saline, higher = longer survival",107 % of control
same,T/C,"endpoint: median survival time, dose: 11.7 mg/kg/injection, schedule: Q01DX009 (ip), vehicle: saline, higher = longer survival",103 % of control
same,T/C,"endpoint: median survival time, dose: 23.4 mg/kg/injection, schedule: Q01DX009 (ip), vehicle: saline, higher = longer survival",120 % of control
CC(C)(C)c1ccc(CN2CCN(C(c3ccccc3)c3ccc(Cl)cc3)CC2)cc1 (configuration not stated),T/C,"endpoint: median survival time, dose: 22.5 micrograms/kg/injection, schedule: Q01DX009 (ip), vehicle: Klucel (hydroxypropylcellulose) (HPC), higher = longer survival",91 % of control
same,T/C,"endpoint: median survival time, dose: 45.0 micrograms/kg/injection, schedule: Q01DX009 (ip), vehicle: Klucel (hydroxypropylcellulose) (HPC), higher = longer survival",88 % of control
